Test results as given in patent US20240059703A1 (AMGEN INC., priority 2021, published 2024).

How the values were obtained:
[1] = tested on: MIA PaCa-2 (human pancreatic carcinoma) cells; assay: Cell Viability Assay (CellTiter-Glo), MIA PaCa-2; format: cell-based; details: Homo sapiens, MIA PaCa-2, 72 h
Method: Serially-diluted compound or DMSO was added to the cells, and plates were incubated at 37° C., 5% CO2 for 72 h. Cell viability was measured using a CellTiter-Glo® Luminescent Cell Viability Assay kit (Promega) according to the manufacturer's protocol. The luminescence signal of treated samples was normalized to DMSO control, and data were analyzed using a 4-parameter logistic model to calculate IC50 values.

[2] = tested on: A549 (human lung carcinoma) cells; assay: Cell Viability Assay (CellTiter-Glo), A549; format: cell-based; details: Homo sapiens, A549, 72 h
Outline: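 Luminescent ATP read-out (CellTiter-Glo) after 72 h compound treatment of cells seeded overnight at 1.67E+04 cells/mL in RPMI 1640, 10% FBS; signal relative to DMSO, IC50 by 4-parameter logistic model.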

KRAS G12C = KRAS G12C (Homo sapiens (Human), UniProt P01116, C118A/G12C); assay: 2 h coupled exchange assay; format: biochemical; details: Avg 2 h Coupled exchange IC50, 2 h compound pre-incubation
Chain of KRAS G12C (P01116 other isoform, or with tags, fused parts or gaps G12C/C118A): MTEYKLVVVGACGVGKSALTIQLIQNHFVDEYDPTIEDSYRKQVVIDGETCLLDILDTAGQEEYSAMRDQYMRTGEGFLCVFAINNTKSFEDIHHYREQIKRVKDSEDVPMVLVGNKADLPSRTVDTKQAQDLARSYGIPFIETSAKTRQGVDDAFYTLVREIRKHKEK
Method: The term “2 h coupled exchange assay” or “20 h coupled exchange assay” as used herein refers to the assay described in the Section entitled “BIOLOGICAL EVALUATION.”

[3] = SOS-mediated nucleotide exchange

SMILES	IC50 [1]	IC50 [2]	IC50 (KRAS G12C; [3])	IC50 (KRAS G12C)
C=C(Cl)C(=O)N1CC2(CCN(c3nc4c(c(-c5c(C)ccc6[nH]ncc56)c3C#N)CCC(C)(C)C4)C2)C1 [Example 13-3, 2-(2-(2-chloro-2-propenoyl)-2,6-diazaspiro[3.4]octan-6-yl)-7,7-dimethyl-4-(5-methyl-1H-indazol-4-yl)-5,6,7,8-tetrahydro-3-quinolinecarbonitrile]	625 nM	1250 nM	166 nM	–
C=CC(=O)N1CC2(CCN(c3nc4c(c(-c5ccc(F)c6sc(N)nc56)c3C)COC(C)(C)C4)C2)C1 (single isomer, unassigned) [Example 14-38, (P)-1-(6-(4-(2-amino-7-fluoro-1,3-benzothiazol-4-yl)-3,7,7-trimethyl-7,8-dihydro-5H-pyrano[4,3-b]pyridin-2-yl)-2,6-diazaspiro[3.4]octan-2-yl)-2-propen-1-one]	123 nM	> 5000 nM	–	63 nM
C=CC(=O)N1CC2(CCN(c3nc4ccccc4c(-c4c(C)ccc5[nH]ncc45)c3C)[C@H]2C)C1 (single isomer, unassigned) [Example 2-57]	921 nM	> 5000 nM	106 nM	–
C=CC(=O)N1CC2(CCN(c3nc4c(c(-c5cccc(F)c5O)c3C#N)CCN(c3scnc3C)C4)C2)C1 [Example 21-14, 4-(3-fluoro-2-hydroxyphenyl)-7-(4-methyl-1,3-thiazol-5-yl)-2-(2-(2-propenoyl)-2,6-diazaspiro[3.4]octan-6-yl)-5,6,7,8-tetrahydro-1,7-naphthyridine-3-carbonitrile]	> 5000 nM	> 5000 nM	–	35 nM
C=CC(=O)N1CC2(CCN(c3nc4c(c(-c5cc(O)cc6nccnc56)c3C#N)C[C@H]3C[C@@H]4C3(C)C)C2)C1 (single isomer, unassigned) [Example 12-38]	> 5000 nM	> 5000 nM	137 nM	–
C=CC(=O)N1CC2(CCN(c3nc4c(c(-c5ccc(F)cc5F)c3C)CC[C@@H](c3c(C)cnn3C)C4)C2)C1 [Example 14-93, 1-(6-((7R)-4-(2,4-difluorophenyl)-7-(1,4-dimethyl-1H-pyrazol-5-yl)-3-methyl-5,6,7,8-tetrahydro-2-quinolinyl)-2,6-diazaspiro[3.4]octan-2-yl)-2-propen-1-one]	352 nM	12400 nM	–	134 nM
C=CC(=O)N1CC2(CCN(c3nc4c(c(-c5c(C)ccc6[nH]ncc56)c3C(=O)OC)CCC(C)(C)C4)C2)C1 [Example 13-44, methyl 7,7-dimethyl-4-(5-methyl-1H-indazol-4-yl)-2-(2-(2-propenoyl)-2,6-diazaspiro[3.4]octan-6-yl)-5,6,7,8-tetrahydro-3-quinolinecarboxylate]	1440 nM	> 5000 nM	589 nM	–
C=CC(=O)N1CC2(CCN(c3nc4cc(-c5scnc5C)cnc4c(-c4ccc(F)cc4)c3C#N)C2)C1 [Example 19-8, 4-(4-fluorophenyl)-7-(4-methyl-1,3-thiazol-5-yl)-2-(2-(2-propenoyl)-2,6-diazaspiro[3.4]octan-6-yl)-1,5-naphthyridine-3-carbonitrile]	320 nM	11200 nM	–	280 nM
C=CC(=O)N1CC2(CCN(c3nc4c(c(-c5cc(O)ccc5F)c3C#N)CCCC4)C2)C1 [Example 2-9, 4-(2-fluoro-5-hydroxyphenyl)-2-(2-(2-propenoyl)-2,6-diazaspiro[3.4]octan-6-yl)-5,6,7,8-tetrahydro-3-quinolinecarbonitrile]	2970 nM	6120 nM	410 nM	–
C=CC(=O)N1CC2(CCN(c3nc4c(N5CCCC5)ccn4c(-c4c(C)ccc5[nH]ncc45)c3C#N)C2)C1 [Example 1-52]	1890 nM	39000 nM	244 nM	–
C=CC(=O)N1CC2(CCN(c3nc4c(c(-c5cc(OC)ccc5F)c3C#N)CCC(c3scnc3C)=C4)C2)C1 [Example 23-38, 4-(2-fluoro-5-methoxyphenyl)-7-(4-methyl-1,3-thiazol-5-yl)-2-(2-(2-propenoyl)-2,6-diazaspiro[3.4]octan-6-yl)-5,6-dihydro-3-quinolinecarbonitrile]	1540 nM	8010 nM	–	135 nM
C=CC(=O)N1CC2(CCN(c3nc4c(c(-c5cc(O)ccc5F)c3C#N)C[C@H]3C[C@@H]4C3(C)C)C2)C1 [Example 2-66, (1R,9R)-6-(2-fluoro-5-hydroxyphenyl)-10,10-dimethyl-4-(2-(2-propenoyl)-2,6-diazaspiro[3.4]octan-6-yl)-3-azatricyclo[7.1.1.0^2,7]undeca-2,4,6-triene-5-carbonitrile]	735 nM	> 5000 nM	89 nM	–
C=CC(=O)N1CC2(CCN(c3nc4c(c(-c5cc(O)ccc5C)c3C)CCC(C)(C)C4)C2)C1 [Example 2-62, 1-(6-(4-(5-hydroxy-2-methylphenyl)-3,7,7-trimethyl-5,6,7,8-tetrahydro-2-quinolinyl)-2,6-diazaspiro[3,4]octan-2-yl)-2-propen-1-one]	1270 nM	> 5000 nM	186 nM	–
C=CC(=O)N1CC2(CCN(c3cc4c(c(-c5c(C)ccc6[nH]ncc56)c3C#N)COCC4)C2)C1 [Example 2-95, 8-(5-methyl-1H-indazol-4-yl)-6-(2-(2-propenoyl)-2,6-diazaspiro[3.4]octan-6-yl)-3,4-dihydro-1H-2-benzopyran-7-carbonitrile]	792 nM	> 5000 nM	88 nM	–
C=CC(=O)N1CC2(CCN(c3nc4c(c(-c5c(O)cccc5F)c3C#N)CCC(c3scnc3C)=C4)C2)C1 [Example 23-29, 4-(2-fluoro-6-hydroxyphenyl)-7-(4-methyl-1,3-thiazol-5-yl)-2-(2-(2-propenoyl)-2,6-diazaspiro[3.4]octan-6-yl)-5,6-dihydro-3-quinolinecarbonitrile]	1320 nM	> 5000 nM	–	48 nM
C=CC(=O)N1CC2(CCN(c3nc4c(c(-c5c(C)ccc6[nH]ncc56)c3C#N)CCC4(C)C)C2)C1 [Example 13-97, 2-(2-acryloyl-2,6-diazaspiro[3.4]octan-6-yl)-7,7-dimethyl-4-(5-methyl-1H-indazol-4-yl)-6,7-dihydro-5H-cyclopenta[b]pyridine-3-carbonitrile]	423 nM	> 5000 nM	46 nM	–
C=CC(=O)N1CC2(CCN(c3nc4c(c(-c5cc(O)cc6ncccc56)c3C#N)C[C@H]3C[C@@H]4C3(C)C)C2)C1 [Example 2-42, (1R,9R)-6-(7-hydroxy-5-quinolinyl)-10,10-dimethyl-4-(2-(2-propenoyl)-2,6-diazaspiro[3,4]octan-6-yl)-3-azatricyclo[7.1.1.0^2,7]undeca-2,4,6-triene-5-carbonitrile]	175 nM	> 5000 nM	28 nM	–
C=CC(=O)N1CC2(CCN(c3nc4c(c(-c5cccc6cn[nH]c56)c3C#N)C[C@H]3C[C@@H]4C3(C)C)C2)C1 (single isomer, unassigned) [Example 14-29]	143 nM	> 5000 nM	–	58 nM
C=CC(=O)N1CC2(CCN(c3nc4c(c(-c5c(C)c(C)cc6cnn(C)c56)c3C#N)COC(C)(C)C4)C2)C1 [Example 13-90, 7,7-dimethyl-2-(2-(2-propenoyl)-2,6-diazaspiro[3.4]octan-6-yl)-4-(1,5,6-trimethyl-1H-indazol-7-yl)-7,8-dihydro-5H-pyrano[4,3-b]pyridine-3-carbonitrile]	24 nM	> 5000 nM	27 nM	–
C=CC(=O)N1CC2(CCN(c3nc4c(c(-c5cccc6cc(O)ccc56)c3C)CCN(CC(O)C(F)(F)F)C4)C2)C1 [Example 18-18, 1-(6-(4-(6-hydroxy-1-naphthalenyl)-3-methyl-7-((2R)-3,3,3-trifluoro-2-hydroxypropyl)-5,6,7,8-tetrahydro-1,7-naphthyridin-2-yl)-2,6-diazaspiro[3.4]octan-2-yl)-2-propen-1one|1-(6-(4-(6-hydroxy-1-naphthalenyl)-3-methyl-7-((2S)-3,3,3-trifluoro-2-hydroxypropyl)-5,6,7,8-tetrahydro-1,7-naphthyridin-2-yl)-2,6-diazaspiro[3.4]octan-2-yl)-2-propen-1-one]	402 nM	> 5000 nM	–	106 nM
C=CC(=O)N1CC2(CCN(c3nc4c(c(-c5c(C)ccc6[nH]ncc56)c3Cl)COC(C)(C)C4)C2)C1 [Example 2-83, 1-(6-(3-chloro-7,7-dimethyl-4-(5-methyl-1H-indazol-4-yl)-7,8-dihydro-5H-pyrano[4,3-b]pyridin-2-yl)-2,6-diazaspiro[3.4]octan-2-yl)-2-propen-1-one]	17 nM	12200 nM	33 nM	–
C=CC(=O)N1CC2(CCN(c3cc4c(c(-c5c(C)ccc6[nH]ncc56)c3C)COCC4)C2)C1 [Example 14-104, 1-(6-(7-methyl-8-(5-methyl-1H-indazol-4-yl)-3,4-dihydro-1H-2-benzopyran-6-yl)-2,6-diazaspiro[3.4]octan-2-yl)-2-propen-1-one]	210 nM	> 5000 nM	–	242 nM
C=CC(=O)N1CC2(CCN(c3nc4c(N5CCN(C)CC5)ccn4c(-c4c(C)ccc5[nH]ncc45)c3C#N)C2)C1 [Example 1-53]	13400 nM	> 50000 nM	99 nM	–
